Reference: PubChem BioAssay AID1963836 (Molecular Pharmacology Branch, DTP, NCI, 2024)

Test system: 857933-349-R-J2-PDC complex spheroid viability
Assay: Anticancer human tumor 857933-349-R-J2-PDC patient-derived colon adenocarcinoma cell line growth inhibition [POLQ]
Conditions: for IC50: curve of first compound; for viability, T/C: stronger effect = lower value
Description: Multicellular complex tumor spheroid response to Polymerase (POL) inhibitors (novobiocin, ART-558, RP6685) in combination with a variety of drugs and investigational agents in selected tumor cell lines
The POL inhibitors (novobiocin, ART-558, and RP6685) were evaluated both individually and in combination with standard of care and investigational anticancer small molecules within a complex spheroid model of solid tumors. . Complex spheroids include a stromal component modeled by human endothelial cells (HUVEC) and fibroblasts modeled by human mesenchymal stem cells (MSCs). The concentration ranges selected for each drug and investigational agent were based upon clinically achievable concentrations if the clinical Cmax of the agent was known.
Compounds. The drugs and investigational agents: novobiocin (NSC847541), ART-558 (NSC835418), RP-6685 (NSC848927), peposertib (NSC802822), ceralasertib (NSC780249), elimusertib (NSC800525), camonsertib (NSC841442), AZD-1390 (NSC803789), olaparib (NSC753686), talazoparib (NSC767125), rucaparib (NSC756644), sotorasib (NSC818433), MRTX-1133 (NSC836407), SN-38 (NSC673596), topotecan (NSC609699), epotoside (NSC141540), doxorubicin (NSC123127), gemcitabine (NSC613327), 5-fluorouracil (NSC19893), paclitaxel (NSC125973), vemurafenib (NSC761431), MSA-2 (NSC828583), SN-011 (NSC837082), adavosertib (NSC754352), prexasertib (NSC758257), carboplatin (NSC241240) and oxaliplatin (NSC266046), were obtained from the National Cancer Institute (NCI) Developmental Therapeutics Program Chemical Repository (21). The FDA-approved anticancer drug set is available from the Developmental Therapeutics Program at https://dtp.cancer.gov/organization/dscb/obtaining/. […] The stock solutions were prepared in dimethyl sulfoxide (DMSO, Sigma-Aldrich, St. Louis, MO, cat. D2650), except for the platinum compounds which were prepared in saline (Quality Biological, Gaithersburg, MD, cat. 114-055-101), at 800-fold the tested concentration and stored at -70 degrees C prior to their use. All drugs and investigational agents were tested over a range starting from a high concentration at or near the clinical Cmax and decreasing in half-log increments. If the clinical Cmax for an agent had not been determined, the highest concentration tested was 10 microM, except for SN-38, which was tested at a high concentration of 1 microM.
Cell Culture. All cells were maintained in an incubator at 37 degrees C and 5% CO2 with 95% humidity. The PDC lines were cultured according to standard operating procedures established by the NCI PDMR (https://pdmr.cancer.gov). Table 3 of the manuscript, lists the cell lines along with the number of the three cell types plated to form the mct-spheroids and media for tumor cell growth. After thawing, all PDC lines, except 997537-175-T-J1-PDC and 415267-285-R-J2-PDC, were cultured in Matrigel-coated flasks prepared with a working solution of 1X Ham's F-12 nutrient mix, without supplementation (Thermo Fisher Scientific, cat. 11765054), 100 U/mL penicillin-streptomycin (Thermo Fisher Scientific, cat. 15140122), and 2.5% Matrigel (Corning Inc., Corning, NY, cat. 354248) for the first three passages. The two PDC lines 997537-175-T-J1-PDC and 415267-285-R-J2-PDC were cultured on uncoated flasks. The 857933-349-R-J2-PDC line was cultured in 6C/Colon 1B media containing advanced DMEM/F-12 (Thermo Fisher Scientific, cat. 12634028), 10 mM HEPES (Thermo Fisher Scientific, cat. 15630080), 1X GlutaMAX supplement (Thermo Fisher Scientific, cat. 35050061), 0.1 mg/mL primocin (InvivoGen, San Diego, CA, cat. ant-pm-2), 10% defined fetal bovine serum, heat inactivated (HyClone Laboratories Inc., Logan, UT, cat. SH30070.03HI), 50% L-WRN conditioned media (ATCC, cat. CRL-3276), 1.25 mM N-Acetyl-L-cysteine (Sigma-Aldrich, cat. A9165), 10 mM nicotinamide (Sigma-Aldrich, cat. N0636), 1X B-27 supplement (Thermo Fisher Scientific, cat. 17504044), 1X N-2 supplement (Thermo Fisher Scientific, cat. […]

[1] = second compound 0.0316 µM, first compound 0.0316 µM
[2] = second compound 0.0316 µM, first compound 0.1 µM
[3] = second compound 0.0316 µM, first compound 0.316 µM
[4] = second compound 0.0316 µM, first compound 1 µM
[5] = second compound 0.0316 µM, first compound 3.16 µM
[6] = second compound 0.0316 µM, first compound 10 µM
[7] = second compound 0.1 µM, first compound 0.0316 µM
[8] = second compound 0.1 µM, first compound 0.1 µM
[9] = second compound 0.1 µM, first compound 0.316 µM
[10] = second compound 0.1 µM, first compound 1 µM
[11] = second compound 0.1 µM, first compound 3.16 µM
[12] = second compound 0.1 µM, first compound 10 µM
[13] = second compound 0.316 µM, first compound 0.0316 µM
[14] = second compound 0.316 µM, first compound 0.1 µM
[15] = second compound 0.316 µM, first compound 0.316 µM
[16] = second compound 0.316 µM, first compound 1 µM
[17] = second compound 0.316 µM, first compound 3.16 µM
[18] = second compound 0.316 µM, first compound 10 µM
[19] = second compound 1 µM, first compound 0.0316 µM
[20] = second compound 1 µM, first compound 0.1 µM
[21] = second compound 1 µM, first compound 0.316 µM
[22] = second compound 1 µM, first compound 1 µM
[23] = second compound 1 µM, first compound 3.16 µM
[24] = second compound 1 µM, first compound 10 µM
[25] = second compound 3.16 µM, first compound 0.0316 µM
[26] = second compound 3.16 µM, first compound 0.1 µM
[27] = second compound 3.16 µM, first compound 0.316 µM
[28] = second compound 3.16 µM, first compound 1 µM
[29] = second compound 3.16 µM, first compound 3.16 µM
[30] = second compound 3.16 µM, first compound 10 µM
[31] = second compound 10 µM, first compound 0.0316 µM
[32] = second compound 10 µM, first compound 0.1 µM
[33] = second compound 10 µM, first compound 0.316 µM
[34] = second compound 10 µM, first compound 1 µM
[35] = second compound 10 µM, first compound 3.16 µM
[36] = second compound 10 µM, first compound 10 µM
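Further: spheroids exposed to compounds for seven days before readout.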

In the case of `CC1COCCN1c1cc(-c2ccnn2C)c2ccnc(-c3ccn[nH]3)c2n1` (centres undefined) + Cc1cccc(N(C)C(=O)C2C(O)CCN2c2nc(C)cc(C(F)(F)F)c2C#N)c1, the IC50 (second compound 0.0316 µM) is reported as 186 nM, the IC50 (second compound 0.1 µM) is reported as 212 nM and the IC50 (second compound 0.316 µM) is reported as 235 nM. The IC50 (second compound 1 µM) was 181 nM, the IC50 (second compound 3.16 µM) was 153 nM and the IC50 (second compound 10 µM) was 92.5 nM. For the same compound, the viability, T/C [1] was 58.7%, the viability, T/C [2] was 55.3% and the viability, T/C [3] was 44%. It also gave a viability, T/C [4] of 29.7%, a viability, T/C [5] of 32.7% and a viability, T/C [6] of 36.6%. It also gave a viability, T/C [7] of 71.6%, a viability, T/C [8] of 73.2% and a viability, T/C [9] of 38.1%. For the same compound, the viability, T/C [10] was 34.2%, the viability, T/C [11] was 42.9% and the viability, T/C [12] was 37.2%. For the same compound, the viability, T/C [13] was 73.2%, the viability, T/C [14] was 68.3% and the viability, T/C [15] was 43.9%. The viability, T/C [16] was 31.3%, the viability, T/C [17] was 49.6% and the viability, T/C [18] was 45.4%. For the same compound, the viability, T/C [19] was 58.9%, the viability, T/C [20] was 63.4% and the viability, T/C [21] was 37.6%. For the same compound, the viability, T/C [22] was 34.4%, the viability, T/C [23] was 42.6% and the viability, T/C [24] was 43.4%. It also gave a viability, T/C [25] of 65.9%, a viability, T/C [26] of 55.4% and a viability, T/C [27] of 44.6%. The viability, T/C [28] was 38.3%, the viability, T/C [29] was 43% and the viability, T/C [30] was 45.6%. For the same compound, the viability, T/C [31] was 49.8%, the viability, T/C [32] was 59.9% and the viability, T/C [33] was 40%. For the same compound, the viability, T/C [34] was 37.6%, the viability, T/C [35] was 47.5% and the viability, T/C [36] was 34.9%.
In the case of `COc1cc2cc(C(=O)CCC(=O)O)sc2cc1OC` + Cc1cccc(N(C)C(=O)C2C(O)CCN2c2nc(C)cc(C(F)(F)F)c2C#N)c1, the IC50 (second compound 0.0316 µM) is reported as over 10000 nM, the IC50 (second compound 0.1 µM) is reported as over 10000 nM and the IC50 (second compound 0.316 µM) is reported as over 10000 nM. The IC50 (second compound 1 µM) was over 10000 nM, the IC50 (second compound 3.16 µM) was over 10000 nM and the IC50 (second compound 10 µM) was over 10000 nM. It also gave a viability, T/C [1] of 97.6%, a viability, T/C [2] of 95.1% and a viability, T/C [3] of 93.6%. It also gave a viability, T/C [4] of 97.7%, a viability, T/C [5] of 96.9% and a viability, T/C [6] of 84.1%. For the same compound, the viability, T/C [7] was 94.8%, the viability, T/C [8] was 93% and the viability, T/C [9] was 102%. For the same compound, the viability, T/C [10] was 102%, the viability, T/C [11] was 86.8% and the viability, T/C [12] was 87.2%. It also gave a viability, T/C [13] of 88.8%, a viability, T/C [14] of 93.8% and a viability, T/C [15] of 89.9%. The viability, T/C [16] was 89.4%, the viability, T/C [17] was 87.9% and the viability, T/C [18] was 76.5%. It also gave a viability, T/C [19] of 89.4%, a viability, T/C [20] of 96.5% and a viability, T/C [21] of 100%. It also gave a viability, T/C [22] of 96.9%, a viability, T/C [23] of 101% and a viability, T/C [24] of 92.1%. The viability, T/C [25] was 104%, the viability, T/C [26] was 106% and the viability, T/C [27] was 90.4%. For the same compound, the viability, T/C [28] was 101%, the viability, T/C [29] was 100% and the viability, T/C [30] was 86.6%. The viability, T/C [31] was 84.7%, the viability, T/C [32] was 87.6% and the viability, T/C [33] was 81.6%. It also gave a viability, T/C [34] of 105%, a viability, T/C [35] of 88.8% and a viability, T/C [36] of 85.6%.
